We go through 4 molecules from PMC3647702 (ACS medicinal chemistry letters, 2013).

Usually IC50 stands for the concentration that gives 50% inhibition.

For assay [1], the system named is 42 Tier 2 clade B and C viruses. The conditions noted are these: read-out: geometric mean titers (GMT) IC50, sensitive strains; cited from earlier work.
The subject of the next assay is clade B viruses. Kind of assay: Neutralization of clade B Env pseudoviruses. Type of assay: cell-based, HIV-1.
The next assay concerns clade C viruses. Briefly: Neutralization of clade C Env pseudoviruses. Type of assay: cell-based, HIV-1.
Assay [2] concerns HIV-1YU2 virus in CD4 negative Cf2Th-CCR5 cells. The note with it: cells lacking the CD4 receptor (CD4–CCR5+ Cf2Th cells); cited from earlier work.
Another assay addresses full-length gp120 (Human immunodeficiency virus type 1 group M subtype B, UniProt P35961). The conditions noted are these: gp120 binding; cited from earlier work.

On to `N=C(N)N[C@H]1Cc2ccccc2[C@@H]1NC(=O)C(=O)Nc1ccc(Cl)c(F)c1` [(+)-3], for which, in assay [1], the IC50 is 7.9 µM.
With `N=C(N)NC[C@H]1Cc2ccccc2[C@@H]1NC(=O)C(=O)Nc1ccc(Cl)c(F)c1.O=CO` [(+)-4], in the assay on clade B viruses, the “improvement over (+)-3 based on IC50 titers” value was found to be 60%, the “improvement over (+)-3 based on IC80 titers” value stood at 1.5 fold and the neutralization breadth turned out to be 100%. This molecule registered a neutralization breadth with clade C viruses of 59%.
As to `N=C(N)N[C@@H]1Cc2ccccc2[C@H]1NC(=O)C(=O)Nc1ccc(Cl)c(F)c1` [(−)-3], the IC50 in assay [1] was 8.9 µM.
On to `CC1(C)CC(NC(=O)C(=O)Nc2ccc(Cl)cc2)CC(C)(C)N1` [Compound 1, NBD-556], for which, in assay [2], the CD4-independent viral entry entry was “agonists of CD4-independent viral entry”. Also, on full-length gp120, the ΔH is -24.5 kcal/mol and the “−TΔS” value was 17.1 kcal/mol.
